Legend:
Experiment in all cases: relative viability (nuclei count vs DMSO), 5 days (fraction); higher = more cells survive
OSI-027 + Decitabine = compound: COc1cccc2cc(-c3nc([C@H]4CC[C@H](C(=O)O)CC4)n4ncnc(N)c34)[nH]c12 [OSI-027] + Nc1ncn([C@H]2C[C@H](O)[C@@H](CO)O2)c(=O)n1 [Decitabine] (partner 2 µM)
Outline: (§1)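 Relative viability divides the nuclei count in treated wells by that in vehicle wells. Lung cancer cell lines were seeded in 1536-well plates, dosed by pin tool the next day, and fixed and stained after 5 days in one step with final 0.05% Triton X-100, 1% formaldehyde and 1 ug/ml Hoechst. Dosing was a single drug or a fixed anchor-drug dose plus five library-drug doses (not always all listed) in √10 steps, and values are medians of duplicate plates imaged at 4×.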

OSI-027 + Olaparib = compound: COc1cccc2cc(-c3nc([C@H]4CC[C@H](C(=O)O)CC4)n4ncnc(N)c34)[nH]c12 [OSI-027] + O=C(c1cc(Cc2n[nH]c(=O)c3ccccc23)ccc1F)N1CCN(C(=O)C2CC2)CC1 [Olaparib] (partner 8 µM)
Outline: as §1

OSI-027 + AZD7762 = compound: COc1cccc2cc(-c3nc([C@H]4CC[C@H](C(=O)O)CC4)n4ncnc(N)c34)[nH]c12 [OSI-027] + NC(=O)Nc1cc(-c2cccc(F)c2)sc1C(=O)N[C@H]1CCCNC1 [AZD7762] (partner 0.2 µM)
Outline: as §1

Alpelisib + Bortezomib = compound: Cc1nc(NC(=O)N2CCC[C@H]2C(N)=O)sc1-c1ccnc(C(C)(C)C(F)(F)F)c1 [Alpelisib] + CC(C)C[C@H](NC(=O)[C@H](Cc1ccccc1)NC(=O)c1cnccn1)B(O)O [Bortezomib] (partner 0.002 µM)
Outline: as §1

Cell Line	relative viability (OSI-027 + Decitabine; first compound 0.01 µM)	relative viability (OSI-027 + Decitabine; first compound 0.03162 µM)	relative viability (OSI-027 + Decitabine; first compound 0.1 µM)	relative viability (OSI-027 + Decitabine; first compound 0.3162 µM)	relative viability (OSI-027 + Decitabine; first compound 1 µM)	relative viability (OSI-027 + Olaparib; first compound 0.01 µM)	relative viability (OSI-027 + Olaparib; first compound 0.03162 µM)	relative viability (OSI-027 + Olaparib; first compound 0.1 µM)	relative viability (OSI-027 + Olaparib; first compound 0.3162 µM)	relative viability (OSI-027 + Olaparib; first compound 1 µM)	relative viability (OSI-027 + AZD7762; first compound 0.01 µM)	relative viability (OSI-027 + AZD7762; first compound 0.03162 µM)	relative viability (OSI-027 + AZD7762; first compound 0.1 µM)	relative viability (OSI-027 + AZD7762; first compound 0.3162 µM)	relative viability (OSI-027 + AZD7762; first compound 1 µM)	relative viability (Alpelisib + Bortezomib; first compound 0.04 µM)	relative viability (Alpelisib + Bortezomib; first compound 0.1265 µM)	relative viability (Alpelisib + Bortezomib; first compound 0.4 µM)	relative viability (Alpelisib + Bortezomib; first compound 1.265 µM)	relative viability (Alpelisib + Bortezomib; first compound 4 µM)
H3255	0.736	0.676	0.558	0.513	0.42	0.595	0.555	0.588	0.569	0.409	0.888	0.958	0.714	0.832	0.613	0.852	0.648	1.2	0.48	0.444
NCI-H1355	0.329	0.437	0.356	0.376	0.243	0.702	0.667	0.663	0.521	0.342	0.703	0.88	0.753	0.628	0.38	1.15	1.23	1.29	1.09	0.961
HCC-827	0.304	0.291	0.3	0.329	0.277	0.669	0.58	0.648	0.599	0.326	0.194	0.201	0.195	0.205	0.214	1.1	0.904	1.28	1.02	0.942
NCI-H2085	0.545	0.562	0.611	0.52	0.446	0.751	0.771	0.726	0.763	0.633	0.978	0.925	0.953	0.97	0.61	0.982	1.08	0.816	0.927	0.842
NCI-H1755	0.75	0.716	0.702	0.654	0.503	0.874	0.849	0.883	0.761	0.486	0.442	0.432	0.574	0.507	0.396	0.911	0.972	1.06	0.886	0.838
PC-14	0.208	0.278	0.239	0.231	0.217	0.228	0.267	0.292	0.306	0.23	0.369	0.314	0.302	0.35	0.22	0.801	0.882	1.16	0.773	0.747
NCI-H3122	0.415	0.547	0.457	0.345	0.154	0.759	0.604	0.682	0.647	0.407	1.06	1.09	0.995	0.946	0.486	0.992	1.08	0.984	1.12	0.999
HCC-44	0.903	0.973	0.93	0.945	0.777	1.06	1.01	1	1	0.716	0.984	1.03	1.03	1.06	1.1	0.882	0.873	0.937	0.788	0.683
NCI-H460	0.544	0.502	0.541	0.456	0.241	0.663	0.369	0.41	0.448	0.239	0.731	0.668	0.473	0.548	0.336	1	0.939	1.13	0.646	0.366
NCI-H1915	0.25	0.257	0.262	0.26	0.242	0.284	0.274	0.259	0.298	0.237	0.728	0.792	0.72	0.592	0.653	0.991	1.04	0.947	0.887	0.805
NCI-H2126	0.558	0.553	0.565	0.523	0.601	0.939	0.904	0.879	0.835	0.578	0.975	0.954	0.998	0.868	0.819	1.06	1.06	1.03	0.974	0.81
EPLC-272H	0.324	0.321	0.344	0.298	0.256	0.714	0.495	0.661	0.386	0.298	0.262	0.212	0.162	0.0961	0.124	0.902	0.911	1.13	0.904	0.622
LCLC-103H	0.748	0.732	0.707	0.598	0.783	0.731	0.753	0.749	0.702	0.817	0.8	0.717	0.748	0.64	0.542	0.819	0.964	1.03	1.05	0.831
PC-3 [JPC-3]	0.769	0.841	0.768	0.684	0.628	1.13	1.14	1.23	1.08	0.628	0.778	0.703	0.521	0.42	0.505	0.873	0.901	0.766	0.768	0.66
NCI-H2087	0.268	0.228	0.24	0.214	0.16	0.757	0.675	0.586	0.542	0.259	1.32	1.1	1.4	1.1	0.929	0.651	0.78	0.893	0.685	0.47
NCI-H1666	0.719	0.7	0.741	0.624	0.555	0.777	0.67	0.744	0.77	0.71	0.837	0.707	0.763	0.766	0.585	0.837	0.695	0.882	0.591	0.423
